Reference: patent EP0671410A1, “Antiviral compounds” (priority 1989, dated 1991)

Key:
[1] = system: Influenza A and B strains; assay: microbe, parasite or virus in culture; format: cell-based; settings: in Gallus gallus, read-out: Anti-influenza Activity CE cells IC50,µM
[2] = system: Influenza A and B strains; set-up: species or system Mice; settings: in vivo
[3] = system: Respiratory Syncytial Virus (RSV); assay: microbe, parasite or virus in culture; format: cell-based; settings: human respiratory syncytial virus, BSC-1; BS-C-1 cells (African Green Monkey kidney cells); plaque/foci reduction; read-out: Anti-respiratory syncytial virus BS-C-1 cells IC₅₀

## Nc1nc(N)c2ncn([C@@H]3O[C@H](CO)[C@@H](O)[C@H]3F)c2n1 [Example 6, 2,6-Diamino-9-(2-deoxy-2-fluoro-β-D-ribofuranosyl)-9H-purine]
[1]
  IC50: 0.6 µM
[2]
  Anti-influenza Activity Mouse log10 reduction in virus titre. (Average of 5 Mice): +(2.1) log10

## Nc1nc2c(ncn2[C@@H]2O[C@H](CO)[C@@H](O)[C@H]2F)c(=O)[nH]1 [Example 7, 9-(2-Deoxy-2-fluoro-β-D-ribofuranosyl)guanine]
[3]
  IC50: 26.2 µM
[1]
  IC50: 0.8 to 2 µM
[2]
  Anti-influenza Activity Mouse log10 reduction in virus titre. (Average of 5 Mice): +(2.4) log10

## Nc1ncnc2c1ncn2[C@@H]1O[C@H](CO)[C@@H](O)[C@H]1F [Example 8, 9-(2-Deoxy-2-fluoro-β-D-ribofuranosyl)adenine]
[1]
  IC50: 4 µM
[2]
  Anti-influenza Activity Mouse log10 reduction in virus titre. (Average of 5 Mice): +(2.3) log10

## Nc1ncc2ncn([C@@H]3O[C@H](CO)[C@@H](O)[C@H]3F)c2n1 [Example 9, 2-Amino-9-(2-deoxy-2-fluoro-β-D-ribofuranosyl)-9H-purine]
[2]
  Anti-influenza Activity Mouse log10 reduction in virus titre. (Average of 5 Mice): +(1.6) log10

## COc1nc(N)nc2c1ncn2[C@@H]1O[C@H](CO)[C@@H](O)[C@H]1F [Example 12, 2-Amino-9-(2-deoxy-2-fluoro-β-D-ribofuranosyl)-6-methoxy-9H-purine]
[3]
  IC50: 6.3 µM
[1]
  IC50: 0.4 µM
[2]
  Anti-influenza Activity Mouse log10 reduction in virus titre. (Average of 5 Mice): +(1.9) log10
